This note sets out measurements from patent US6153604A, “Therapeutic substituted guanidines” (Cambridge NeuroScience, Inc., priority 1995, dated 2000).

What is called IC50 is the concentration at which inhibition is half-maximal.

Each structure is given as a SMILES string. Structures can show the parent of a compound that is named as a salt.

One assay concerns the target PCP receptor. The experiment in a line: PCP receptor radioligand binding assay ([3H]MK-801, rat brain membranes). The conditions noted are these: read-out: [3H-MK801] IC50; displacement of [3H]MK-801, rat brain membranes. In general terms: Displacement assays read how much labelled ligand stays bound in the presence of the test substance.
Another assay has as its target sigma receptor. Briefly: Sigma receptor binding assay ([3H]DTG, guinea pig brain membrane homogenates). The conditions noted are these: displacement of [3H]DTG, guinea pig brain membranes. The procedure: Sigma Receptor Binding Assay
Briefly, frozen whole guinea-pig brains (Biotrol, Indianapolis, Ind.) were homogenized in 10 volumes (w/v) of ice-cold 320 mM sucrose using a Brinkman polytron. The homogenate was centrifuged at 1,000×g for 20 minutes at 4° C. The supernatant was centrifuged at 20,000×g for 20 minutes at 4° C. The resulting pellet was resuspended in 10 initial volumes of 50 mM Tris/HCl buffer at pH 7.4 and centrifuged at 20,000×g for 20 minutes at 4° C. The resulting pellet was resuspended in 5 initial volumes ice-cold 50 mM Tris/HCl (pH 7.4), and the final volume was adjusted to yield a protein concentration of 3 mg/ml. Aliquots of 20-ml were stored at -70° C. until used, with no detectable loss of binding.
The protein concentration in the 1-ml final incubation volume was 800 μg/ml, corresponding to 32 mg of brain tissue (original wet weight) and to a tissue concentration within the linear range for specific binding. […] Incubations were terminated after 90 minutes at room temperature by addition of 4 ml of ice-cold 50 mM Tris/HCl (pH 7.4) and rapid filtration of the membrane suspension through Whatman GF/B glass-fiber filters under vacuum, using a 48-well cell harvester (Brandel). The filters were washed 2 times with 4 ml of 50 mM Tris/HCl (pH 7.4). […] IC50 values were determined by non-linear regression analysis.

For `CSc1ccc(Br)c(NC(=N)N(C)c2cccc(C(F)(F)F)c2)c1` [Compd. No. 69 (Table I), N-(3-Trifluoromethylphenyl)-N-methyl-N'-(2-bromo-5-methylthiophenyl)guanidine hydrochloride], the IC50 at PCP receptor came to 5.55 nM; on sigma receptor, 631 nM.
For the molecule `CCc1cccc(N(C)C(=N)N(C)c2cc(CC)ccc2Cl)c1` [Compd. No. 28 (Table I), N-(3-Ethylphenyl)-N-methyl-N'-(2-chloro-5-ethylphenyl)-N'-methylguanidine hydrochloride], the IC50 at PCP receptor was found to be 145 nM.
Same read-out and setting: as for `CCc1ccc(Br)c(NC(=N)N(C)c2cccc(OC(F)(F)F)c2)c1` [Compound 74], the figure is 16 nM.
`CCc1cccc(NC(=N)Nc2cc(CC)ccc2Br)c1` [Compd. No. 23 (Table I), N-(3-Ethylphenyl)-N'-(2-bromo-5-ethylphenyl)guanidine hydrochloride]: the IC50 on PCP receptor came to 38.3 nM; at sigma receptor, 5.07 nM.
On the same counts, the results for `CCc1cccc(NC(=N)Nc2cc(C(F)(F)F)ccc2Cl)c1` [Compd. No. 6 (Table I), N-(3-Ethylphenyl)-N'-(2-chloro-5-trifluoromethylphenyl)guanidine hydrochloride] are 57.1 nM and 14.2 nM.
On the same counts, the results for `CCc1cccc(N(C)C(=N)Nc2cc(SC)ccc2Br)c1` [Compd. No. 59 (Table I)] are 3.19 nM and 240 nM.
In turn, `CCc1ccc(Br)c(NC(=N)N(C)c2cccc(SC)c2)c1` [Compd. No. 64 (Table I), N-(3-Methylthiophenyl)-N-methyl-N'-(2-bromo-5-ethylphenyl)guanidine hydrochloride] showed an IC50 on sigma receptor of 180 nM.
Consider `CCc1cccc(NC(=N)Nc2cc(C)ccc2Cl)c1` [Compd. No. 7 (Table I), N-(3-Ethylphenyl)-N'-(2-chloro-5-methylphenyl)guanidine hydrochloride], for which the results for the 50% inhibitory concentration (IC50) on PCP receptor and on sigma receptor were 100 nM and 30.6 nM, respectively.
As for `CCc1ccc(Cl)c(NC(=N)Nc2cccc3ccccc23)c1` [Compd. No. 44 (Table I), N-(1-Naphthyl)-N'-(2-chloro-5-ethylphenyl)guanidine hydrochloride], the IC50 on PCP receptor came out at 20.6 nM; on sigma receptor, 4.94 nM.
For `CSc1cccc(NC(=N)Nc2cccc3ccccc23)c1` [Compd. No. 47 (Table I)], the concentration for half-maximal inhibition (IC50) on PCP receptor was 124 nM; on sigma receptor it was 27 nM.
Consider `CCc1cccc(NC(=N)Nc2cccc(CC)c2)c1` [Compd. No. 9 (Table I)], for which the half-maximal inhibitory concentration (IC50) on PCP receptor amounted to 168 nM; at sigma receptor it was 8 nM.
In the case of `CCc1ccc(Cl)c(NC(=N)Nc2cc(C)ccc2Cl)c1` [Compd. No. 29 (Table I)], the values for the IC50 on PCP receptor and on sigma receptor were 54.7 nM and 36.1 nM, respectively.
In the case of `CCc1cccc(NC(=N)Nc2cc(C(F)(F)F)ccc2F)c1` [Compound 5], the IC50 on PCP receptor is 98.9 nM; on sigma receptor, 14.8 nM.
With `CCc1cccc(N(C)C(=N)Nc2cc(Cl)ccc2Cl)c1` [Compd. No. 10 (Table I), N-(3-ethylphenyl)-N-methyl-N'-(2,5-dichlorophenyl)guanidine hydrochloride], the results for the half-maximal inhibitory concentration (IC50) at PCP receptor and on sigma receptor were 84.6 nM and 28.5 nM, respectively.
On the same counts, the results for `CCc1cccc(N(C)C(=N)Nc2cc(C(F)(F)F)ccc2Br)c1` [Compd. No. 13 (Table I), N-(3-Ethylphenyl)-N-methyl-N'-(2-bromo-5-trifluoromethylphenyl)guanidine hydrochloride] are 102 nM and 208 nM.
For the molecule `CCc1ccc(Cl)c(N(C)C(=N)Nc2cccc3ccccc23)c1` [Compd. No. 57 (Table I), N-(1-Naphthyl)-N'-(2-chloro-5-ethylphenyl)-N'-methylguanidine hydrochloride], the IC50 at PCP receptor was 32.8 nM; at sigma receptor, 136 nM.
Turning to `CN(C(=N)Nc1cc(Br)ccc1Br)c1cccc(S(C)(=O)=O)c1` [Compound 75], the IC50 on PCP receptor is 530 nM.
As to `CCc1ccc(Br)c(NC(=N)N(C)c2cccc(C(F)(F)F)c2)c1` [Compd. No. 70 (Table I), N-(3-Trifluoromethylphenyl)-N-methyl-N'-(2-bromo-5-ethylphenyl)guanidine hydrochloride], the IC50 on PCP receptor amounted to 20.4 nM; at sigma receptor, 166 nM.
Regarding `Cc1ccc(C)c(N(C)C(=N)Nc2cccc3ccccc23)c1` [Compd. No. 54 (Table I), N-(1-Naphthyl)-N'-(2,5-dimethylphenyl)-N'-methylguanidine hydrochloride], the values for the IC50 on PCP receptor and at sigma receptor were 79 nM and 1550 nM, respectively.
Consider `CCc1cccc(N(C)C(=N)Nc2cccc3ccccc23)c1` [Compd. No. 58 (Table I)], for which the values for the half-maximal inhibitory concentration (IC50) at PCP receptor and at sigma receptor were 37.5 nM and 2540 nM, respectively.
`CSc1ccc(Cl)c(NC(=N)N(C)c2cccc(Br)c2)c1` [Compd. No. 72 (Table I), N-(3-Bromophenyl)-N-methyl-N'-(2-chloro-5-methylthiophenyl)guanidine hydrochloride]: the half-maximal inhibitory concentration (IC50) on PCP receptor amounted to 4.65 nM.
For `N=C(Nc1cc(Br)ccc1Br)Nc1cccc2ccccc12` [Compd. No. 32 (Table I), N-(1-Naphthyl)-N'-(2,5-dibromophenyl)guanidine hydrochloride], the IC50 on PCP receptor stood at 48.6 nM; on sigma receptor, 37.6 nM.
As to `CN(C(=N)Nc1cc(Cl)ccc1Cl)c1cccc(C(F)(F)F)c1` [Compd. No. 68 (Table I), N-(3-Trifluoromethylphenyl)-N-methyl-N'-(2,5-dichlorophenyl)guanidine hydrochloride], at sigma receptor, the 50% inhibitory concentration (IC50) is 110 nM.
In the case of `CCc1ccc(Cl)c(NC(=N)N(C)c2cccc(SC)c2)c1` [Compd. No. 61 (Table I), N-(3-Methylthiophenyl)-N-methyl-N'-(2-chloro-5-ethylphenyl)guanidine hydrochloride], the figures for the IC50 on PCP receptor and on sigma receptor were 12.5 nM and 178 nM, respectively.
On the same counts, the results for `CN(C(=N)Nc1cccc2ccccc12)c1cccc(Cl)c1` [Compd. No. 52 (Table I)] are 107 nM and 2980 nM.
As to `CSc1cccc(N(C)C(=N)Nc2cc(SC)ccc2Br)c1` [Compd. No. 63 (Table I), N-(3-Methylthiophenyl)-N-methyl-N'-(2-bromo-5-methylthiophenyl)guanidine], the IC50 on PCP receptor came to 2.15 nM.
On the same count and under the same terms, as for `CN(C(=N)Nc1cccc2ccccc12)c1cccc(Br)c1` [Compd. No. 53 (Table I)], the figure is 54 nM.
On the same count and under the same terms, next, `CCc1ccc(Cl)c(NC(=N)Nc2cccc(I)c2)c1` [Compound 78]: 13.7 nM; `CSc1ccc(Cl)c(NC(=N)N(C)c2cccc(I)c2)c1` [Compound 77]: 2.11 nM; `CN(C(=N)Nc1cc(Br)ccc1Br)c1cccc([S+](C)[O-])c1` (stereo not shown) [Compound 76]: 322 nM.
The same measure, in the same setting: as for `CSc1cccc(N(C)C(=N)Nc2cc(Br)ccc2Br)c1` [Compd. No. 65 (Table I), N-(3-Methylthiophenyl)-N-methyl-N'-(2,5-dibromophenyl)guanidine hydrochloride], the figure is 5.38 nM; as for `CN(C(=N)Nc1cc(Br)ccc1Br)c1cccc(OC(F)(F)F)c1` [Compd. No. 73 (Table I), N-(3-Trifluoromethoxyphenyl)-N'-(2,5-dibromophenyl)-N-methylguanidine hydrochloride], 25.6 nM; as for `CCc1cccc(N(C)C(=N)N(C)c2cc(Cl)ccc2Cl)c1` [Compd. No. 26 (Table I), N-(3-Ethylphenyl)-N-methyl-N'-(2,5-dichlorophenyl)-N'-methylguanidine hydrochloride], 93.7 nM.
